# Results reported in US5783178A, “Polymer linked biological agents” (Supratek Pharma. Inc., priority 1994, dated 1998).
# Like-named read-outs stand apart in the source and are kept apart here.
# Key:
# [1] = Solution stability in PBS (dissolved daunorubicin monitored by fluorescence); assay type: physicochemical; conditions: 37°, PBS pH 7.0, 0.2 μM
# [2] = tested on: SKOV3 line of transformed cells (SK cells); assay: Cytotoxicity towards SK cells (XTT); assay type: cell-based; conditions: Homo sapiens
# [3] = tested on: SKVLB cell line (SK-resistant cells); assay: Cytotoxicity towards SK-resistant cells (XTT); assay type: cell-based
# [4] = tested on: murine myeloma cell line Sp2/0 (Sp2); assay: Cytotoxicity towards Sp2 cells (XTT); assay type: cell-based; conditions: Mus musculus, Example 7
# Sp2-resistant cell line = assay: Cytotoxicity towards Sp2-resistant cells (XTT); assay type: cell-based, murine; conditions: Mus musculus, Example 7
# [5] = tested on: Sp2-resistant myeloma cells; assay: Tumor treatment, Sp2-resistant tumors; assay type: in vivo, female Balb C mice; conditions: i.v. at MTD
# Sp2 myeloma cell line = assay: Tumor treatment, Sp2 tumors; assay type: in vivo, female Balb C mice; conditions: i.v. at MTD
# [6] = tested on: MCF-7 line of human breast cancer cells; assay: Micellar agent delivery, cytotoxicity against MCF-7; assay type: cell-based; conditions: MCF7
# MCF-7AU = assay: Micellar agent delivery, cytotoxicity against MCF-7AU; assay type: cell-based; conditions: Homo sapiens
# Dox-MCF-7 = assay: Micellar agent delivery, cytotoxicity against Dox-MCF-7; assay type: cell-based; conditions: Homo sapiens
# in vivo = conditions: mouse, ip
# SK cells = assay: Activity of conjugated TNFα on SK cells (XTT); assay type: cell-based; conditions: 24 hours
compound,measurement,setting,value
"COc1cccc2c1C(=O)c1c(O)c3c(c(O)c1C2=O)C[C@@](O)(C(C)=O)C[C@@H]3O[C@H]1C[C@H](N)[C@H](O)[C@H](C)O1 [Free daunorubicin, daunorubicin]",I585 (% of initial),[1]; 0 hours incubation,100 % of initial
same,"remaining at 6 h, 0.2 µM","[1]; 6 hours incubation, read-out: I585 (% of initial)",92%
same,"remaining at 27 h, 0.2 µM","[1]; 27 hours incubation, read-out: I585 (% of initial)",89%
same,"remaining at 43 h, 0.2 µM","[1]; 43 hours incubation, read-out: I585 (% of initial)",68%
same,"remaining at 78 h, 0.2 µM","[1]; 78 hours incubation, read-out: I585 (% of initial)",54%
same,"remaining at 120 h, 0.2 µM","[1]; 120 hours incubation, read-out: I585 (% of initial)",37%
same,IC50,"[2]; SK-OV-3, Example 5, 1 h exposure, 4 days culture, daunorubicin content basis, read-out: IC50",0.32 mg/L
same,IC50,"[2]; SK-OV-3, Example 6, methods of Example 5",5.2 mg/L
same,IC50,"[3]; Example 5, 1 h exposure, 4 days culture, daunorubicin content basis",2.55 mg/L
same,IC50,"[3]; Example 6, methods of Example 5",45 mg/L
same,IC50,[4],0.22 mg/L
same,IC50,Sp2-resistant cell line,2.6 mg/L
same,V/V0,[5]; day 0 after first treatment,1
same,V/V0,[5]; day 3 after first treatment,2.7
same,V/V0,[5]; day 6 after first treatment,3.4
same,V/V0,[5]; day 8 after first treatment,5.1
same,V/V0,[5]; day 10 after first treatment,6.6
same,V/V0,[5]; day 13 after first treatment,11.6
same,V/V0,[5]; day 16 after first treatment,20.9
same,V/V0,[5]; day 20 after first treatment,25.9
same,V/V0,[5]; day 23 after first treatment,38.4
same,V/V0,[5]; day 27 after first treatment,50.9
same,V/V0,[5]; day 31 after first treatment,68.3
same,V/V0,[5]; day 34 after first treatment,73.0
same,V/V0,[5]; day 38 after first treatment,83.4
same,V/V0,[5]; day 42 after first treatment,113.8
same,V/V0,[5]; day 45 after first treatment,111.9
same,V/V0,Sp2 myeloma cell line; day 0 after first treatment,1
same,V/V0,Sp2 myeloma cell line; day 4 after first treatment,1.5
same,V/V0,Sp2 myeloma cell line; day 7 after first treatment,2.4
same,V/V0,Sp2 myeloma cell line; day 12 after first treatment,8.8
same,V/V0,Sp2 myeloma cell line; day 14 after first treatment,10.9
same,V/V0,Sp2 myeloma cell line; day 17 after first treatment,16.8
same,V/V0,Sp2 myeloma cell line; day 21 after first treatment,17.5
same,V/V0,Sp2 myeloma cell line; day 25 after first treatment,16.1
same,V/V0,Sp2 myeloma cell line; day 28 after first treatment,15.8
same,V/V0,Sp2 myeloma cell line; day 32 after first treatment,15.9
same,V/V0,Sp2 myeloma cell line; day 35 after first treatment,15.7
same,inhibition at 0.016 µg/mL,[6],15%
same,inhibition at 0.08 µg/mL,[6],43%
same,inhibition at 0.4 µg/mL,[6],69%
same,inhibition at 2 µg/mL,[6],91%
same,inhibition at 10 µg/mL,[6],100%
same,inhibition at 50 µg/mL,[6],100%
same,inhibition at 0.016 µg/mL,MCF-7AU,3%
same,inhibition at 0.08 µg/mL,MCF-7AU,9%
same,inhibition at 0.4 µg/mL,MCF-7AU,37%
same,inhibition at 2 µg/mL,MCF-7AU,65%
same,inhibition at 10 µg/mL,MCF-7AU,89%
same,inhibition at 50 µg/mL,MCF-7AU,100%
same,inhibition at 0.016 µg/mL,Dox-MCF-7,2%
same,inhibition at 0.08 µg/mL,Dox-MCF-7,7%
same,inhibition at 0.4 µg/mL,Dox-MCF-7,39%
same,inhibition at 2 µg/mL,Dox-MCF-7,62%
same,inhibition at 10 µg/mL,Dox-MCF-7,86%
same,inhibition at 50 µg/mL,Dox-MCF-7,100%
same,LD50 at 336 h,in vivo,7 mg/kg
same,MTD at 336 h,in vivo,5 mg/kg
human tumor necrosis factorα [TNFα],"Inhibition, % (± SD)",SK cells; TNFα concentration 0.01 (unit not given),0%
same,"Inhibition, % (± SD)",SK cells; TNFα concentration 0.05 (unit not given),2 (± 2) %
same,"Inhibition, % (± SD)",SK cells; TNFα concentration 0.2 (unit not given),5 (± 3) %
same,"Inhibition, % (± SD)",SK cells; TNFα concentration 1.0 (unit not given),4 (± 4) %
same,"Inhibition, % (± SD)",SK cells; TNFα concentration 5 (unit not given),10 (± 5) %
same,"Inhibition, % (± SD)",SK cells; TNFα concentration 20 (unit not given),22 (± 5) %
same,"Inhibition, % (± SD)",SK cells; TNFα concentration 50 (unit not given),35 (± 7) %
same,"Inhibition, % (± SD)",SK cells; TNFα concentration 100 (unit not given),44 (± 6) %
same,"Inhibition, % (± SD)",SK cells; TNFα concentration 200 (unit not given),80 (± 14) %
